Experimental findings from patent US20160237059A1, “HETEROCYCLIC SUBSTITUTED TRIFLUOROMETHYL PYRIMIDINONES AND THEIR USE” (BAYER PHARMA AKTIENGESELLSCHAFT, priority 2013, published 2016) are described below.

As usually defined, the IC50 is the point on the concentration scale where inhibition reaches its midpoint. A high value points to weaker potency in that assay.

In one test the target is T1, human CCR2 (Homo sapiens, UniProt P41597).
T1 construct: host or cells: Chem-1 cell line
T1 sequence (P41597 1-360 isoform P41597-2): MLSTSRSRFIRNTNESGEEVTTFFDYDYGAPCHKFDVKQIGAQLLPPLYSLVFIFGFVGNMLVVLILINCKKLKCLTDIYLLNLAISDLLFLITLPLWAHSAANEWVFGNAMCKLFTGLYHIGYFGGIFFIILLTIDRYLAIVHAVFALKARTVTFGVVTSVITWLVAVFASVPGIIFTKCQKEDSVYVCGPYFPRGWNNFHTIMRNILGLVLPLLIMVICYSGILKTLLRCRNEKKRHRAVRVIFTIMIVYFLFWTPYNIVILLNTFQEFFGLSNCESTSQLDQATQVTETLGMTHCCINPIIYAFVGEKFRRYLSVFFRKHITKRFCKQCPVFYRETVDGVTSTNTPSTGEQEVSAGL
The test can be described thus: Functional Ca2+ release test (B-1). Type of test: cell-based. As to conditions: Chem-1 cell line transfected with human CCR2; 50% inhibition of the MCP-1 effect, MCP-1 at EC50 (about 5 nM); in some cases means of several determinations. The protocol:
The antagonistic action of test substances on CCR2 was determined in a functional Ca^2+ release test. Binding of CCL2/MCP-1 to CCR2 leads to a change in the conformation of the receptor resulting in Gi/Gq protein activation and intracellular signal cascade. This involves, inter alia, an intracellular Ca^2+ release. The test cell used was a Chem-1 cell line transfected with human CCR2 (ChemiSCREEN™ CCR2B Calcium-Optimized FLIPR Cell Line, Merck Millipore).
(§1) The test substances were dissolved in dimethyl sulphoxide (DMSO) at a concentration of 10 mM and serially diluted with DMSO in steps of 1:3.16 for a 10-point dose/activity analysis. According to the desired test concentrations, the substances were pre-diluted in Tyrode with 2 mM CaCl2 and 0.05% BSA.
The cells, cultivated in DMEM high glucose [supplemented with 10% FCS, 1 mM pyruvate, 15 mM HEPES, 500 μg/ml geniticin and non-essential amino acids (NEAA)], were sown at 5000 cells/25 μl in 384 well, μCLEAR/black cell culture plates from Greiner (#781092) and incubated at 37° C. for 24 h. The sowing medium consisted of DMEM high glucose [supplemented with 5% FCS, 1 mM pyruvate, 15 mM HEPES, 50 U/ml penicillin, 50 μg/ml streptomycin and non-essential amino acids (NEAA)]. The medium was then removed and the cells were charged for 60 min at 37° C. with Fluo-4 dye [25 μl Tyrode with 3 μM Fluo-4 AM (1 mM DMSO stock solution), 0.4 mg/ml Brilliant Black, 2.5 mM probenicid, 0.03% Pluronic F-127]. The cells were pre-incubated for 10 min with 10 μl of the test substances diluted in buffer, and 20 μl of agonist solution (MCP-1 in Tyrode with 0.05% BSA) were then added. MCP-1 was employed at the concentration which corresponds to the EC50 which had been determined in a preliminary test (usually about 5 nM). Ca^2+ release was monitored over a period of 120 s in 1 s increments in a proprietary fluorescence imaging reader. The molar concentration of the test substance which caused 50% inhibition of the MCP-1 effect (IC50) was determined using a 4-parameter logistic function (Hill function).

For another test, the target named is T2, murine CCR2 (Mus musculus, UniProt P51683).
T2 construct: host or cells: U2OS β-arrestin cell line
T2 sequence (P51683 whole entry): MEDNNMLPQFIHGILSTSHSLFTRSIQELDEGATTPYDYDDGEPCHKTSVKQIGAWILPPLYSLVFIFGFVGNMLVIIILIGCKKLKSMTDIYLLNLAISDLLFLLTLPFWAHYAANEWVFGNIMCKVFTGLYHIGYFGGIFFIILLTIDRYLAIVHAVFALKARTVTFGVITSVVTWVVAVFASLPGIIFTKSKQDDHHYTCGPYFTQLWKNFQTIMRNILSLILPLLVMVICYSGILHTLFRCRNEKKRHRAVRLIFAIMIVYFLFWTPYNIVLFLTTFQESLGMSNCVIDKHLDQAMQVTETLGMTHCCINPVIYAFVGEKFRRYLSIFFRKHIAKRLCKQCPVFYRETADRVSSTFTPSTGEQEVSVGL
Nature of the test: Functional β-arrestin recruiting test with murine MCP-1 (B-2b). Type of test: cell-based. As to conditions: U2OS β-arrestin cell line transfected with murine CCR2; agonist murine MCP-1; in some cases means of several determinations. The protocol: The antagonistic action of test substances on CCR2 was determined in a β-arrestin test. The PathHunter β-arrestin GPCR test system (DiscoveRx Corporation, Ltd.) is a cell-based functional method for detecting binding of β-arrestin to an activated receptor. The molecular basis is a […] complementation measured by the enzymatic conversion of a chemiluminescent substrate. The test cell used was a U2OS β-arrestin cell line transfected with murine CCR2 (93-0543C3, DiscoveRx Corporation, Ltd.).
as §1
The cells, cultivated in MEM Eagle (supplemented with 10% FCS, 50 U/ml of penicillin, 50 μg/ml of streptomycin, 250 μg/ml of hygromycin and 500 μg/ml of geniticin), were sown at 2000 cells/25 μl in 384 well, μCLEAR/black cell culture plates from Greiner (#781092) and incubated at 37° C. for 24 h. The sowing medium consisted of Opti-MEM (supplemented with 1% FCS, 50 U/ml of penicillin and 50 μg/ml of streptomycin). The cells were pre-incubated for 10 min with 10 μl of the test substances diluted in buffer, and 10 μl of agonist solution [human MCP-1 (PeproTech, #300-04) in Tyrode with 0.05% BSA) were then added. The human MCP-1 was employed at the concentration which corresponds to the EC50 which had been determined in a preliminary test (usually about 3 nM). After 90 min of incubation at 37° C., the solution was removed, and recruitment of β-arrestin to CCR2 was detected with the aid of the PathHunter detection reagent (93-001, DiscoveRx Corporation, Ltd.) according to the instructions of the manufacturer. Luminescence was measured after an incubation time of 60 min using a proprietary luminescence imaging measuring instrument. The molar concentration of the test substance which caused 50% inhibition of the MCP-1 effect (IC50) was determined using a 4-parameter logistic function (Hill function).
The test was carried out in a manner identical to that described above under B-2a, but using murine MCP-1 (PeproTech, #250-10) as agonist.

Take `Nc1ncc(-c2nc(C(F)(F)F)c(Oc3ccc(Cl)c(Cl)c3)c(=O)[nH]2)cn1` [Example 154, 2′-amino-5-(3,4-dichlorophenoxy)-6-(trifluoromethyl)-2,5′-bipyrimidin-4(3H)-one]: the IC50 is 37 nM on human CCR2 and 1930 nM on murine CCR2.

Consider `Nc1ncc(-c2nc(C(F)(F)F)c(Oc3ccc(Cl)c(C(F)(F)F)c3)c(=O)[nH]2)cn1` [Example 155, 2′-amino-5-[4-chloro-3-(trifluoromethyl)phenoxy]-6-(trifluoromethyl)-2,5′-bipyrimidin-4(3H)-one], for which the 50% inhibitory concentration (IC50) on human CCR2 came out at 23 nM; on murine CCR2, 1080 nM.

On to `COc1cc(OC)nc(-c2nc(C(F)(F)F)c(Oc3ccc(Cl)c(Cl)c3)c(=O)[nH]2)n1` [Example 156, 5-(3,4-dichlorophenoxy)-4′,6′-dimethoxy-6-(trifluoromethyl)-2,2′-bipyrimidin-4(3H)-one], for which the IC50 on human CCR2 stood at 0.7 nM; at murine CCR2 it was 244 nM.

Take `Cc1ccc(-c2nc(C(F)(F)F)c(Oc3ccc(Cl)c(Cl)c3)c(=O)[nH]2)nc1C` [Example 157, 5-(3,4-dichlorophenoxy)-2-(5,6-dimethylpyridin-2-yl)-6-(trifluoromethyl)pyrimidin-4(3H)-one]: the 50% inhibitory concentration (IC50) against human CCR2 is 14 nM; on murine CCR2, 1510 nM.

Turning to `Cc1ccc(-c2nc(C(F)(F)F)c(Oc3ccc(Cl)c(C(F)(F)F)c3)c(=O)[nH]2)nc1C` [Example 158, 5-[4-chloro-3-(trifluoromethyl)phenoxy]-2-(5,6-dimethylpyridin-2-yl)-6-(trifluoromethyl)pyrimidin-4(3H)-one], the IC50 turned out to be 8.7 nM against human CCR2 and 983 nM at murine CCR2.

As to `CC(C)(C)Oc1ccnc(-c2nc(C(F)(F)F)c(Oc3ccc(Cl)c(Cl)c3)c(=O)[nH]2)c1` [Example 159, 2-(4-tert-butoxypyridin-2-yl)-5-(3,4-dichlorophenoxy)-6-(trifluoromethyl)pyrimidin-4(3H)-one], the IC50 against human CCR2 stood at 62 nM; on murine CCR2 it was 2470 nM.

As to `CC(C)(C)Oc1ccnc(-c2nc(C(F)(F)F)c(Oc3ccc(Cl)c(C(F)(F)F)c3)c(=O)[nH]2)c1` [Example 160, 2-(4-tert-butoxypyridin-2-yl)-5-[4-chloro-3-(trifluoromethyl)phenoxy]-6-(trifluoromethyl)pyrimidin-4(3H)-one], the IC50 worked out at 62 nM against human CCR2 and 1960 nM at murine CCR2.

Take `O=c1[nH]c(-c2cccc[n+]2[O-])nc(C(F)(F)F)c1Oc1ccc(Cl)c(Cl)c1` [Example 161, 5-(3,4-dichlorophenoxy)-2-(1-oxidopyridin-2-yl)-6-(trifluoromethyl)pyrimidin-4(3H)-one]: the IC50 on human CCR2 is 2.3 nM; on murine CCR2 it was 432 nM.

For the molecule `CCc1cccc(-c2nc(C(F)(F)F)c(Oc3ccc(Cl)c(Cl)c3)c(=O)[nH]2)n1` [Example 162, 2-(6-ethylpyridin-2-yl)-5-(3,4-dichlorophenoxy)-6-(trifluoromethyl)pyrimidin-4(3H)-one], the values for the IC50 at human CCR2 and at murine CCR2 were 1.9 nM and 1070 nM, respectively.

In the case of `CC(C)Oc1ccc(-c2nc(C(F)(F)F)c(Oc3ccc(Cl)c(Cl)c3)c(=O)[nH]2)cn1` [Example 163, 5-(3,4-dichlorophenoxy)-2-(6-isopropoxypyridin-3-yl)-6-(trifluoromethyl)pyrimidin-4(3H)-one], the concentration for half-maximal inhibition (IC50) against human CCR2 is 129 nM; on murine CCR2, 7680 nM.

`O=c1[nH]c(-c2cccnc2)nc(C(F)(F)F)c1Oc1ccc(Cl)c(C(F)(F)F)c1` [Example 164, 5-[4-chloro-3-(trifluoromethyl)phenoxy]-2-(pyridin-3-yl)-6-(trifluoromethyl)pyrimidin-4(3H)-one]: the IC50 at human CCR2 was 16 nM; on murine CCR2 it was 798 nM.

As to `O=c1[nH]c(-c2cccnc2)nc(C(F)(F)F)c1Cc1ccc(Cl)c(C(F)(F)F)c1` [Example 165, 5-[4-chloro-3-(trifluoromethyl)benzyl]-2-(pyridin-3-yl)-6-(trifluoromethyl)pyrimidin-4(3H)-one], the half-inhibitory concentration (IC50) turned out to be 14 nM on human CCR2 and 3370 nM at murine CCR2.

Consider `CNc1cccc(-c2nc(C(F)(F)F)c(Oc3ccc(Cl)c(Cl)c3)c(=O)[nH]2)n1` [Example 166, 5-(3,4-dichlorophenoxy)-2-[6-(methylamino)pyridin-2-yl]-6-(trifluoromethyl)pyrimidin-4(3H)-one], for which the half-maximal inhibitory concentration (IC50) against human CCR2 stood at 8.8 nM; at murine CCR2, 277 nM.

For the molecule `CNc1cccc(-c2nc(C(F)(F)F)c(Oc3ccc(Cl)c(C(F)(F)F)c3)c(=O)[nH]2)n1` [Example 167, 5-[4-chloro-3-(trifluoromethyl)phenoxy]-2-[6-(methylamino)pyridin-2-yl]-6-(trifluoromethyl)pyrimidin-4(3H)-one], the half-maximal inhibitory concentration (IC50) on human CCR2 is 2.7 nM; at murine CCR2, 153 nM.

In the case of `CNc1ccnc(-c2nc(C(F)(F)F)c(Oc3ccc(Cl)c(Cl)c3)c(=O)[nH]2)c1` [Example 168, 5-(3,4-dichlorophenoxy)-2-[4-(methylamino)pyridin-2-yl]-6-(trifluoromethyl)pyrimidin-4(3H)-one], the IC50 against human CCR2 turned out to be 25 nM; on murine CCR2 it was 1210 nM.

In the case of `CNc1ccnc(-c2nc(C(F)(F)F)c(Oc3ccc(Cl)c(C(F)(F)F)c3)c(=O)[nH]2)c1` [Example 169, 5-[4-chloro-3-(trifluoromethyl)phenoxy]-2-[4-(methylamino)pyridin-2-yl]-6-(trifluoromethyl)pyrimidin-4(3H)-one], the IC50 against human CCR2 amounted to 36 nM; at murine CCR2, 624 nM.

In the case of `Cc1cc(-c2nc(C(F)(F)F)c(Oc3ccc(Cl)c(C(F)(F)F)c3)c(=O)[nH]2)nn1C` [Example 170, 5-[4-chloro-3-(trifluoromethyl)phenoxy]-2-(1,5-dimethyl-1H-pyrazol-3-yl)-6-(trifluoromethyl)pyrimidin-4(3H)-one], the IC50 was found to be 0.7 nM against human CCR2 and 84 nM at murine CCR2.

`COc1conc1-c1nc(C(F)(F)F)c(Oc2ccc(Cl)c(Cl)c2)c(=O)[nH]1` [Example 179, 5-(3,4-dichlorophenoxy)-2-(4-methoxy-1,2-oxazol-3-yl)-6-(trifluoromethyl)pyrimidin-4(3H)-one]: the figures for the concentration for half-maximal inhibition (IC50) at human CCR2 and at murine CCR2 were 1.8 nM and 73 nM, respectively.

Take `COc1conc1-c1nc(C(F)(F)F)c(Oc2ccc(Cl)c(C(F)(F)F)c2)c(=O)[nH]1` [Example 180, 5-[4-chloro-3-(trifluoromethyl)phenoxy]-2-(4-methoxy-1,2-oxazol-3-yl)-6-(trifluoromethyl)pyrimidin-4(3H)-one]: the IC50 was 1 nM against human CCR2 and 105 nM at murine CCR2.
